Test: molar heat capacity at saturation pressure
Conditions: Glass, Small (less than 1 g) adiabatic calorimetry

CCC[n+]1ccn(C)c1.[Br-] [1-methyl-3-propylimidazolium bromide]
Conditions | molar heat capacity [J/K/mol]
80.55 K | 98.61
82.89 K | 100.33
84.9 K | 101.67
86.92 K | 103.14
88.94 K | 104.66
90.96 K | 106.14
92.98 K | 107.59
95 K | 109.05
97.02 K | 110.46
99.05 K | 111.82
101.08 K | 113.17
103.11 K | 114.53
105.14 K | 115.8
107.17 K | 117.19
109.2 K | 118.42
111.24 K | 119.73
113.29 K | 120.92
115.33 K | 122.2
117.37 K | 123.41
119.41 K | 124.68
121.46 K | 125.82
123.5 K | 127.01
125.55 K | 128.16
127.6 K | 129.31
129.65 K | 130.51
131.7 K | 131.69
133.75 K | 132.94
135.8 K | 134.11
137.86 K | 135.27
139.91 K | 136.51
141.97 K | 137.66
144.02 K | 138.89
146.09 K | 140.08
148.15 K | 141.29
150.21 K | 142.47
152.27 K | 143.7
154.33 K | 144.86
156.39 K | 146.04
158.46 K | 147.24
160.52 K | 148.42
162.58 K | 149.59
164.65 K | 150.76
166.71 K | 151.98
168.78 K | 153.15
170.84 K | 154.38
172.91 K | 155.61
174.97 K | 156.8
177.04 K | 158.04
179.11 K | 159.26
181.18 K | 160.5
183.25 K | 161.87
185.32 K | 163.21
187.39 K | 164.56
189.46 K | 165.92
191.53 K | 167.36
193.61 K | 168.95
195.69 K | 170.66
197.77 K | 172.38
199.86 K | 174.39
201.95 K | 176.91
202.67 K | 177.34
204.04 K | 179.87
205.14 K | 181.79
206.12 K | 184.42
207.25 K | 188.13
208.16 K | 192.2
209.29 K | 200.7
210.11 K | 209.2
211.19 K | 228.95
211.92 K | 238.53
213.01 K | 255.28
213.79 K | 257.19
215.01 K | 258.34
215.82 K | 258.85
